How the values were obtained:
Assay in all cases: relative viability (nuclei count vs DMSO), 5 days (fraction); higher = more cells survive
Venetoclax + Tozasertib = compound: CC1(C)CCC(CN2CCN(c3ccc(C(=O)NS(=O)(=O)c4ccc(NCC5CCOCC5)c([N+](=O)[O-])c4)c(Oc4cnc5[nH]ccc5c4)c3)CC2)=C(c2ccc(Cl)cc2)C1 [Venetoclax] + Cc1cc(Nc2cc(N3CCN(C)CC3)nc(Sc3ccc(NC(=O)C4CC4)cc3)n2)n[nH]1 [Tozasertib] (partner 0.1 µM)
Outline: (§1)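 One day after seeding in 1536-well plates, lung cancer cell lines were dosed by pin tool. Dosing was either single-drug or a fixed anchor-drug dose plus five library-drug doses (not always all listed) in √10 steps. After 5 days, nuclei were stained in one fix-and-stain step and counted on 4× images, and relative viability is the nuclei count of treated wells over that of vehicle wells, given as the median of duplicate plates.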

Venetoclax + AZD7762 = compound: CC1(C)CCC(CN2CCN(c3ccc(C(=O)NS(=O)(=O)c4ccc(NCC5CCOCC5)c([N+](=O)[O-])c4)c(Oc4cnc5[nH]ccc5c4)c3)CC2)=C(c2ccc(Cl)cc2)C1 [Venetoclax] + NC(=O)Nc1cc(-c2cccc(F)c2)sc1C(=O)N[C@H]1CCCNC1 [AZD7762] (partner 0.2 µM)
Outline: as §1

Venetoclax + Pemetrexed = compound: CC1(C)CCC(CN2CCN(c3ccc(C(=O)NS(=O)(=O)c4ccc(NCC5CCOCC5)c([N+](=O)[O-])c4)c(Oc4cnc5[nH]ccc5c4)c3)CC2)=C(c2ccc(Cl)cc2)C1 [Venetoclax] + Nc1nc2[nH]cc(CCc3ccc(C(=O)N[C@@H](CCC(=O)O)C(=O)O)cc3)c2c(=O)[nH]1 [Pemetrexed] (partner 0.2 µM)
Outline: as §1

Selumetinib + Phenformin = compound: Cn1cnc2c(F)c(Nc3ccc(Br)cc3Cl)c(C(=O)NOCCO)cc21 [Selumetinib] + N=C(N)NC(=N)NCCc1ccccc1 [Phenformin] (partner 250 µM)
Outline: as §1

LOU-NH91
relative viability (Venetoclax + Tozasertib; first compound 0.01 µM): 0.652 | relative viability (Venetoclax + Tozasertib; first compound 0.03162 µM): 0.697 | relative viability (Venetoclax + Tozasertib; first compound 0.1 µM): 0.576 | relative viability (Venetoclax + Tozasertib; first compound 0.3162 µM): 0.684 | relative viability (Venetoclax + Tozasertib; first compound 1 µM): 0.604 | relative viability (Venetoclax + AZD7762; first compound 0.01 µM): 0.766 | relative viability (Venetoclax + AZD7762; first compound 0.03162 µM): 0.8 | relative viability (Venetoclax + AZD7762; first compound 0.1 µM): 0.723 | relative viability (Venetoclax + AZD7762; first compound 0.3162 µM): 0.777 | relative viability (Venetoclax + AZD7762; first compound 1 µM): 0.63 | relative viability (Venetoclax + Pemetrexed; first compound 0.01 µM): 0.362 | relative viability (Venetoclax + Pemetrexed; first compound 0.03162 µM): 0.365 | relative viability (Venetoclax + Pemetrexed; first compound 0.1 µM): 0.392 | relative viability (Venetoclax + Pemetrexed; first compound 0.3162 µM): 0.327 | relative viability (Venetoclax + Pemetrexed; first compound 1 µM): 0.337 | relative viability (Selumetinib + Phenformin; first compound 0.02 µM): 0.674 | relative viability (Selumetinib + Phenformin; first compound 0.06325 µM): 0.69 | relative viability (Selumetinib + Phenformin; first compound 0.2 µM): 0.688 | relative viability (Selumetinib + Phenformin; first compound 0.6325 µM): 0.661

LU99A
relative viability (Venetoclax + Tozasertib; first compound 0.01 µM): 0.28 | relative viability (Venetoclax + Tozasertib; first compound 0.03162 µM): 0.26 | relative viability (Venetoclax + Tozasertib; first compound 0.1 µM): 0.234 | relative viability (Venetoclax + Tozasertib; first compound 0.3162 µM): 0.295 | relative viability (Venetoclax + Tozasertib; first compound 1 µM): 0.321 | relative viability (Venetoclax + AZD7762; first compound 0.01 µM): 0.343 | relative viability (Venetoclax + AZD7762; first compound 0.03162 µM): 0.391 | relative viability (Venetoclax + AZD7762; first compound 0.1 µM): 0.251 | relative viability (Venetoclax + AZD7762; first compound 0.3162 µM): 0.367 | relative viability (Venetoclax + AZD7762; first compound 1 µM): 0.307 | relative viability (Venetoclax + Pemetrexed; first compound 0.01 µM): 0.177 | relative viability (Venetoclax + Pemetrexed; first compound 0.03162 µM): 0.239 | relative viability (Venetoclax + Pemetrexed; first compound 0.1 µM): 0.163 | relative viability (Venetoclax + Pemetrexed; first compound 0.3162 µM): 0.172 | relative viability (Venetoclax + Pemetrexed; first compound 1 µM): 0.178 | relative viability (Selumetinib + Phenformin; first compound 0.02 µM): 0.905 | relative viability (Selumetinib + Phenformin; first compound 0.06325 µM): 0.799 | relative viability (Selumetinib + Phenformin; first compound 0.2 µM): 0.85 | relative viability (Selumetinib + Phenformin; first compound 0.6325 µM): 0.835

LXF-289
relative viability (Venetoclax + Tozasertib; first compound 0.01 µM): 0.217 | relative viability (Venetoclax + Tozasertib; first compound 0.03162 µM): 0.218 | relative viability (Venetoclax + Tozasertib; first compound 0.1 µM): 0.187 | relative viability (Venetoclax + Tozasertib; first compound 0.3162 µM): 0.216 | relative viability (Venetoclax + Tozasertib; first compound 1 µM): 0.213 | relative viability (Venetoclax + AZD7762; first compound 0.01 µM): 1.19 | relative viability (Venetoclax + AZD7762; first compound 0.03162 µM): 1.06 | relative viability (Venetoclax + AZD7762; first compound 0.1 µM): 1.02 | relative viability (Venetoclax + AZD7762; first compound 0.3162 µM): 1.06 | relative viability (Venetoclax + AZD7762; first compound 1 µM): 1.01 | relative viability (Venetoclax + Pemetrexed; first compound 0.01 µM): 0.986 | relative viability (Venetoclax + Pemetrexed; first compound 0.03162 µM): 0.948 | relative viability (Venetoclax + Pemetrexed; first compound 0.1 µM): 0.782 | relative viability (Venetoclax + Pemetrexed; first compound 0.3162 µM): 0.873 | relative viability (Venetoclax + Pemetrexed; first compound 1 µM): 0.79 | relative viability (Selumetinib + Phenformin; first compound 0.02 µM): 0.52 | relative viability (Selumetinib + Phenformin; first compound 0.06325 µM): 0.501 | relative viability (Selumetinib + Phenformin; first compound 0.2 µM): 0.442 | relative viability (Selumetinib + Phenformin; first compound 0.6325 µM): 0.434

NCI-H23
relative viability (Venetoclax + Tozasertib; first compound 0.01 µM): 0.492 | relative viability (Venetoclax + Tozasertib; first compound 0.03162 µM): 0.347 | relative viability (Venetoclax + Tozasertib; first compound 0.1 µM): 0.368 | relative viability (Venetoclax + Tozasertib; first compound 0.3162 µM): 0.323 | relative viability (Venetoclax + Tozasertib; first compound 1 µM): 0.418 | relative viability (Venetoclax + AZD7762; first compound 0.01 µM): 0.198 | relative viability (Venetoclax + AZD7762; first compound 0.03162 µM): 0.268 | relative viability (Venetoclax + AZD7762; first compound 0.1 µM): 0.279 | relative viability (Venetoclax + AZD7762; first compound 0.3162 µM): 0.262 | relative viability (Venetoclax + AZD7762; first compound 1 µM): 0.199 | relative viability (Venetoclax + Pemetrexed; first compound 0.01 µM): 0.671 | relative viability (Venetoclax + Pemetrexed; first compound 0.03162 µM): 0.747 | relative viability (Venetoclax + Pemetrexed; first compound 0.1 µM): 0.597 | relative viability (Venetoclax + Pemetrexed; first compound 0.3162 µM): 0.76 | relative viability (Venetoclax + Pemetrexed; first compound 1 µM): 0.588 | relative viability (Selumetinib + Phenformin; first compound 0.02 µM): 0.834 | relative viability (Selumetinib + Phenformin; first compound 0.06325 µM): 0.706 | relative viability (Selumetinib + Phenformin; first compound 0.2 µM): 0.774 | relative viability (Selumetinib + Phenformin; first compound 0.6325 µM): 0.519

NCI-H322M
relative viability (Venetoclax + Tozasertib; first compound 0.01 µM): 0.495 | relative viability (Venetoclax + Tozasertib; first compound 0.03162 µM): 0.477 | relative viability (Venetoclax + Tozasertib; first compound 0.1 µM): 0.477 | relative viability (Venetoclax + Tozasertib; first compound 0.3162 µM): 0.555 | relative viability (Venetoclax + Tozasertib; first compound 1 µM): 0.493 | relative viability (Venetoclax + AZD7762; first compound 0.01 µM): 0.606 | relative viability (Venetoclax + AZD7762; first compound 0.03162 µM): 0.608 | relative viability (Venetoclax + AZD7762; first compound 0.1 µM): 0.424 | relative viability (Venetoclax + AZD7762; first compound 0.3162 µM): 0.591 | relative viability (Venetoclax + AZD7762; first compound 1 µM): 0.649 | relative viability (Venetoclax + Pemetrexed; first compound 0.01 µM): 0.606 | relative viability (Venetoclax + Pemetrexed; first compound 0.03162 µM): 0.581 | relative viability (Venetoclax + Pemetrexed; first compound 0.1 µM): 0.598 | relative viability (Venetoclax + Pemetrexed; first compound 0.3162 µM): 0.627 | relative viability (Venetoclax + Pemetrexed; first compound 1 µM): 0.596 | relative viability (Selumetinib + Phenformin; first compound 0.02 µM): 0.668 | relative viability (Selumetinib + Phenformin; first compound 0.06325 µM): 0.561 | relative viability (Selumetinib + Phenformin; first compound 0.2 µM): 0.57 | relative viability (Selumetinib + Phenformin; first compound 0.6325 µM): 0.574

NCI-H358
relative viability (Venetoclax + Tozasertib; first compound 0.01 µM): 0.117 | relative viability (Venetoclax + Tozasertib; first compound 0.03162 µM): 0.0943 | relative viability (Venetoclax + Tozasertib; first compound 0.1 µM): 0.115 | relative viability (Venetoclax + Tozasertib; first compound 0.3162 µM): 0.0994 | relative viability (Venetoclax + Tozasertib; first compound 1 µM): 0.102 | relative viability (Venetoclax + AZD7762; first compound 0.01 µM): 0.338 | relative viability (Venetoclax + AZD7762; first compound 0.03162 µM): 0.527 | relative viability (Venetoclax + AZD7762; first compound 0.1 µM): 0.556 | relative viability (Venetoclax + AZD7762; first compound 0.3162 µM): 0.714 | relative viability (Venetoclax + AZD7762; first compound 1 µM): 0.558 | relative viability (Venetoclax + Pemetrexed; first compound 0.01 µM): 0.176 | relative viability (Venetoclax + Pemetrexed; first compound 0.03162 µM): 0.176 | relative viability (Venetoclax + Pemetrexed; first compound 0.1 µM): 0.187 | relative viability (Venetoclax + Pemetrexed; first compound 0.3162 µM): 0.178 | relative viability (Venetoclax + Pemetrexed; first compound 1 µM): 0.179 | relative viability (Selumetinib + Phenformin; first compound 0.02 µM): 0.211 | relative viability (Selumetinib + Phenformin; first compound 0.06325 µM): 0.175 | relative viability (Selumetinib + Phenformin; first compound 0.2 µM): 0.183 | relative viability (Selumetinib + Phenformin; first compound 0.6325 µM): 0.158

NCI-H441
relative viability (Venetoclax + Tozasertib; first compound 0.01 µM): 0.587 | relative viability (Venetoclax + Tozasertib; first compound 0.03162 µM): 0.603 | relative viability (Venetoclax + Tozasertib; first compound 0.1 µM): 0.86 | relative viability (Venetoclax + Tozasertib; first compound 0.3162 µM): 0.676 | relative viability (Venetoclax + Tozasertib; first compound 1 µM): 0.507 | relative viability (Venetoclax + AZD7762; first compound 0.01 µM): 1.14 | relative viability (Venetoclax + AZD7762; first compound 0.03162 µM): 1.27 | relative viability (Venetoclax + AZD7762; first compound 0.1 µM): 1.05 | relative viability (Venetoclax + AZD7762; first compound 0.3162 µM): 1.4 | relative viability (Venetoclax + AZD7762; first compound 1 µM): 1.09 | relative viability (Venetoclax + Pemetrexed; first compound 0.01 µM): 0.274 | relative viability (Venetoclax + Pemetrexed; first compound 0.03162 µM): 0.271 | relative viability (Venetoclax + Pemetrexed; first compound 0.1 µM): 0.243 | relative viability (Venetoclax + Pemetrexed; first compound 0.3162 µM): 0.253 | relative viability (Venetoclax + Pemetrexed; first compound 1 µM): 0.244 | relative viability (Selumetinib + Phenformin; first compound 0.02 µM): 0.886 | relative viability (Selumetinib + Phenformin; first compound 0.06325 µM): 0.674 | relative viability (Selumetinib + Phenformin; first compound 0.2 µM): 0.667 | relative viability (Selumetinib + Phenformin; first compound 0.6325 µM): 0.468

NCI-H460
relative viability (Venetoclax + Tozasertib; first compound 0.01 µM): 0.473 | relative viability (Venetoclax + Tozasertib; first compound 0.03162 µM): 0.387 | relative viability (Venetoclax + Tozasertib; first compound 0.1 µM): 0.126 | relative viability (Venetoclax + Tozasertib; first compound 0.3162 µM): 0.266 | relative viability (Venetoclax + Tozasertib; first compound 1 µM): 0.25 | relative viability (Venetoclax + AZD7762; first compound 0.01 µM): 0.754 | relative viability (Venetoclax + AZD7762; first compound 0.03162 µM): 0.653 | relative viability (Venetoclax + AZD7762; first compound 0.1 µM): 0.619 | relative viability (Venetoclax + AZD7762; first compound 0.3162 µM): 0.669 | relative viability (Venetoclax + AZD7762; first compound 1 µM): 0.566 | relative viability (Venetoclax + Pemetrexed; first compound 0.01 µM): 0.062 | relative viability (Venetoclax + Pemetrexed; first compound 0.03162 µM): 0.0571 | relative viability (Venetoclax + Pemetrexed; first compound 0.1 µM): 0.0565 | relative viability (Venetoclax + Pemetrexed; first compound 0.3162 µM): 0.0577 | relative viability (Venetoclax + Pemetrexed; first compound 1 µM): 0.064 | relative viability (Selumetinib + Phenformin; first compound 0.02 µM): 0.479 | relative viability (Selumetinib + Phenformin; first compound 0.06325 µM): 0.397 | relative viability (Selumetinib + Phenformin; first compound 0.2 µM): 0.309 | relative viability (Selumetinib + Phenformin; first compound 0.6325 µM): 0.176

Source: the supplement of paper PMC10307832
